From paper PMC4303209, “A novel phosphatidylinositol 3-kinase (PI3K) inhibitor directs a potent FOXO-dependent, p53-independent cell cycle arrest phenotype characterized by the differential induction of a subset of FOXO-regulated genes” (Breast Cancer Research : BCR, 2014)

Test system: MCF-7 breast cancer cells
Test: Microarray gene expression analysis (Agilent whole human genome 4 x 44K; compound vs DMSO, LIMMA log2 fold change)
Format: cell-based

SMILES: Cn1ncc2c(N3CCOCC3)nc(-c3cccc(O)c3)nc21 [ETP-45658]
- EYA1 log2FC (gene EYA1 (2138), apoptosis genes): 0.012
- log2FC EYA1 (gene EYA1 (Gene 2138), cell cycle genes): 0.012
- FABP1 log2FC (gene FABP1 (2168), apoptosis genes): 0.009
- FAIM2 log2FC (gene FAIM2 (23017), apoptosis genes): -0.062
- FAM3B log2FC (gene FAM3B (54097), apoptosis genes): -0.028
- FAM32A log2FC (gene FAM32A (26017), apoptosis genes): -0.032
- log2FC FAM32A (gene FAM32A (Gene 26017), cell cycle genes): -0.032
- log2FC (gene FAM58A (Gene 92002), cell cycle genes): 0.217
- FAS log2FC (gene FAS (355), apoptosis genes): -0.032
- log2FC (gene FBXL15 (Gene 79176), cell cycle genes): 0.209
- log2FC FGFR1OP (gene FGFR1OP (Gene 11116), cell cycle genes): -0.035
- FIS1 log2FC (gene FIS1 (51024), apoptosis genes): -0.018
- FKSG2 log2FC (gene FKSG2 (59347), apoptosis genes): 0.133
- log2FC (gene FMN2 (Gene 56776), cell cycle genes): 0.105
- FOXB1 log2FC (gene FOXB1 (27023), apoptosis genes): -0.340
- log2FC (gene FSD1 (Gene 79187), cell cycle genes): -0.401
- GADD45G log2FC (gene GADD45G (10912), apoptosis genes): -0.067
- GAPDH log2FC (gene GAPDH (2597), apoptosis genes): -0.037
- log2FC (gene GAS2L1 (Gene 10634), cell cycle genes): -0.313
- log2FC GAS2L2 (gene GAS2L2 (Gene 246176), cell cycle genes): -0.00355
- GAS6 log2FC (gene GAS6 (2621), apoptosis genes): -0.052
- GATA6 log2FC (gene GATA6 (2627), apoptosis genes): -0.019
- log2FC GATA6 (gene GATA6 (Gene 2627), cell cycle genes): -0.019
- GCG log2FC (gene GCG (2641), apoptosis genes): 0.020
- GCLM log2FC (gene GCLM (2730), apoptosis genes): -0.092
- GCM2 log2FC (gene GCM2 (9247), apoptosis genes): -0.015
- log2FC (gene GEM (Gene 2669), cell cycle genes): 0.406
- GFRAL log2FC (gene GFRAL (389400), apoptosis genes): 0.017
- GHRL log2FC (gene GHRL (51738), apoptosis genes): -0.012
- GIMAP5 log2FC (gene GIMAP5 (55340), apoptosis genes): 0.026
- GJB6 log2FC (gene GJB6 (10804), apoptosis genes): -0.056
- log2FC (gene GOLGA2 (Gene 2801), cell cycle genes): 0.210
- log2FC (gene GORASP1 (Gene 64689), cell cycle genes): 0.146
- log2FC (gene GORASP2 (Gene 26003), cell cycle genes): -0.256
- GPI log2FC (gene GPI (2821), apoptosis genes): -0.083
- GPR65 log2FC (gene GPR65 (8477), apoptosis genes): 0.021
- GRK1 log2FC (gene GRK1 (6011), apoptosis genes): -0.013
- log2FC (gene GTPBP8 (Gene 29083), cell cycle genes): 0.316
- log2FC (gene GTSE1 (Gene 51512), cell cycle genes): -0.374
- log2FC H1FOO (gene H1FOO (Gene 132243), cell cycle genes): 0.014
- HCLS1 log2FC (gene HCLS1 (3059), apoptosis genes): 0.022
- log2FC (gene HELLS (Gene 3070), cell cycle genes): 0.388
- HIPK3 log2FC (gene HIPK3 (10114), apoptosis genes): 0.006
- log2FC HORMAD2 (gene HORMAD2 (Gene 150280), cell cycle genes): 0.014
- log2FC HPGD (gene HPGD (Gene 3248), cell cycle genes): 0.013
- HPN log2FC (gene HPN (3249), apoptosis genes): -0.022
- HTRA2 log2FC (gene HTRA2 (27429), apoptosis genes): 0.031
- log2FC HTRA2 (gene HTRA2 (Gene 27429), cell cycle genes): 0.031
- IFI6 log2FC (gene IFI6 (2537), apoptosis genes): 0.041
- IFNA2 log2FC (gene IFNA2 (3440), apoptosis genes): -0.017
- IFNB1 log2FC (gene IFNB1 (3456), apoptosis genes): 0.00571
- IL1A log2FC (gene IL1A (3552), apoptosis genes): -0.044
- IL2RA log2FC (gene IL2RA (3559), apoptosis genes): -0.031
- IL2RB log2FC (gene IL2RB (3560), apoptosis genes): 0.014
- IL12A log2FC (gene IL12A (3592), apoptosis genes): 0.00544
- log2FC IL12A (gene IL12A (Gene 3592), cell cycle genes): 0.00544
- IL12B log2FC (gene IL12B (3593), apoptosis genes): -0.025
- IL17A log2FC (gene IL17A (3605), apoptosis genes): -0.016
- IL19 log2FC (gene IL19 (29949), apoptosis genes): -0.00458
- ILK log2FC (gene ILK (3611), apoptosis genes): -0.066
- log2FC ILKAP (gene ILKAP (Gene 80895), cell cycle genes): 0.002
- INSL6 log2FC (gene INSL6 (11172), apoptosis genes): 0.055
- ISL1 log2FC (gene ISL1 (3670), apoptosis genes): -0.036
- ITGA6 log2FC (gene ITGA6 (3655), apoptosis genes): -0.050
- ITGB2 log2FC (gene ITGB2 (3689), apoptosis genes): -0.075
- ITM2C log2FC (gene ITM2C (81618), apoptosis genes): -0.082
- log2FC KATNB1 (gene KATNB1 (Gene 10300), cell cycle genes): 0.014
- log2FC KCNA5 (gene KCNA5 (Gene 3741), cell cycle genes): -0.012
- KDR log2FC (gene KDR (3791), apoptosis genes): -0.026
- log2FC (gene KIAA0101 (Gene 9768), cell cycle genes): 0.294
- KIAA1324 log2FC (gene KIAA1324 (57535), apoptosis genes): -0.008
- log2FC KIF2B (gene KIF2B (Gene 84643), cell cycle genes): -0.018
- log2FC (gene KIF13A (Gene 63971), cell cycle genes): 0.190
- log2FC (gene KIF23 (Gene 9493), cell cycle genes): 0.530
- log2FC KIF25 (gene KIF25 (Gene 3834), cell cycle genes): -0.013
- KLF4 log2FC (gene KLF4 (9314), apoptosis genes): -0.009
- KRT20 log2FC (gene KRT20 (54474), apoptosis genes): -0.037
- LALBA log2FC (gene LALBA (3906), apoptosis genes): 0.031
- log2FC LATS1 (gene LATS1 (Gene 9113), cell cycle genes): 0.043
- log2FC (gene LATS2 (Gene 26524), cell cycle genes): 0.213
- LCMT1 log2FC (gene LCMT1 (51451), apoptosis genes): -0.115
- LCN2 log2FC (gene LCN2 (3934), apoptosis genes): 0.046
- log2FC (gene LEMD3 (Gene 23592), cell cycle genes): 0.294
- LGALS1 log2FC (gene LGALS1 (3956), apoptosis genes): 0.017
- LGALS12 log2FC (gene LGALS12 (85329), apoptosis genes): 0.013
- LGALS14 log2FC (gene LGALS14 (56891), apoptosis genes): -0.009
- log2FC (gene LMNA (Gene 4000), cell cycle genes): -0.311
- LRP1 log2FC (gene LRP1 (4035), apoptosis genes): 0.0019
- log2FC (gene LRP6 (Gene 4040), cell cycle genes): -0.141
- log2FC (gene LSM11 (Gene 134353), cell cycle genes): 0.145
- LTA log2FC (gene LTA (4049), apoptosis genes): -0.039
- LTF log2FC (gene LTF (4057), apoptosis genes): 0.011
- MAD2L1 log2FC (gene MAD2L1 (4085), apoptosis genes): 0.081
- MAEL log2FC (gene MAEL (84944), apoptosis genes): -0.018
- log2FC MAEL (gene MAEL (Gene 84944), cell cycle genes): -0.018
- MAGED1 log2FC (gene MAGED1 (9500), apoptosis genes): -0.026
- MAGEH1 log2FC (gene MAGEH1 (28986), apoptosis genes): -0.040
- MAP2K5 log2FC (gene MAP2K5 (5607), apoptosis genes): -0.077
- MAP2K7 log2FC (gene MAP2K7 (5609), apoptosis genes): 0.020
- log2FC (gene MAP3K8 (Gene 1326), cell cycle genes): 0.390
- log2FC (gene MAP4 (Gene 4134), cell cycle genes): -0.267
- MAPK1 log2FC (gene MAPK1 (5594), apoptosis genes): -0.045
- log2FC (gene MAPK4 (Gene 5596), cell cycle genes): -0.157
- log2FC (gene MAPK6 (Gene 5597), cell cycle genes): 0.270
- MAPK8 log2FC (gene MAPK8 (5599), apoptosis genes): 0.027
- MAPK9 log2FC (gene MAPK9 (5601), apoptosis genes): 0.064
- log2FC (gene MAPK12 (Gene 6300), cell cycle genes): -0.374
- MAPT log2FC (gene MAPT (4137), apoptosis genes): -0.024
- log2FC MCM4 (gene MCM4 (Gene 4173), cell cycle genes): 0.015
- MDM4 log2FC (gene MDM4 (4194), apoptosis genes): 0.064
- log2FC (gene MED25 (Gene 81857), cell cycle genes): -0.377
- MKL1 log2FC (gene MKL1 (57591), apoptosis genes): 0.068
- MKNK1 log2FC (gene MKNK1 (8569), apoptosis genes): -0.00243
- MNDA log2FC (gene MNDA (4332), apoptosis genes): -0.056
- MSX2 log2FC (gene MSX2 (4488), apoptosis genes): 0.054
- MT3 log2FC (gene MT3 (4504), apoptosis genes): -0.266
- log2FC (gene MYOG (Gene 4656), cell cycle genes): -0.210
- NACA log2FC (gene NACA (4666), apoptosis genes): 0.023
- log2FC NANOG (gene NANOG (Gene 79923), cell cycle genes): -0.00653
- log2FC (gene NASP (Gene 4678), cell cycle genes): 0.392
- NCF1 log2FC (gene NCF1 (653361), apoptosis genes): -0.052
- NCF2 log2FC (gene NCF2 (4688), apoptosis genes): -0.027
- log2FC (gene NCOR1 (Gene 9611), cell cycle genes): 0.294
- NDUFS3 log2FC (gene NDUFS3 (4722), apoptosis genes): -0.101
- NEURL log2FC (gene NEURL (9148), apoptosis genes): -0.034
- NEUROD1 log2FC (gene NEUROD1 (4760), apoptosis genes): -0.043
- log2FC NEUROG1 (gene NEUROG1 (Gene 4762), cell cycle genes): 0.161
- NLE1 log2FC (gene NLE1 (54475), apoptosis genes): 0.057
- NME6 log2FC (gene NME6 (10201), apoptosis genes): -0.008
- log2FC NME6 (gene NME6 (Gene 10201), cell cycle genes): -0.008
- NOS1AP log2FC (gene NOS1AP (9722), apoptosis genes): 0.022
- NOTCH1 log2FC (gene NOTCH1 (4851), apoptosis genes): -0.090
- NOX5 log2FC (gene NOX5 (79400), apoptosis genes): -0.012
- log2FC NOX5 (gene NOX5 (Gene 79400), cell cycle genes): -0.012
- NTRK1 log2FC (gene NTRK1 (4914), apoptosis genes): -0.014
- log2FC (gene NUMA1 (Gene 4926), cell cycle genes): -0.415
- log2FC (gene NUP153 (Gene 9972), cell cycle genes): -0.238
- log2FC NUP155 (gene NUP155 (Gene 9631), cell cycle genes): -0.034
- log2FC (gene NUP188 (Gene 23511), cell cycle genes): -0.304
- NUPR1 log2FC (gene NUPR1 (26471), apoptosis genes): 0.023
- OSR1 log2FC (gene OSR1 (130497), apoptosis genes): -0.039
- P4HB log2FC (gene P4HB (5034), apoptosis genes): 0.022
- log2FC (gene PA2G4 (Gene 5036), cell cycle genes): -0.298
- PAFAH2 log2FC (gene PAFAH2 (5051), apoptosis genes): 0.046
- PAK6 log2FC (gene PAK6 (56924), apoptosis genes): -0.022
- log2FC PAK6 (gene PAK6 (Gene 56924), cell cycle genes): -0.022
- log2FC (gene PAPD5 (Gene 64282), cell cycle genes): 0.341
- PARK7 log2FC (gene PARK7 (11315), apoptosis genes): 0.028
- PAX2 log2FC (gene PAX2 (5076), apoptosis genes): 0.003
- log2FC PCNA (gene PCNA (Gene 5111), cell cycle genes): -0.00322
- PCSK9 log2FC (gene PCSK9 (255738), apoptosis genes): -0.039
- log2FC PDCD2L (gene PDCD2L (Gene 84306), cell cycle genes): 0.012
- PDCD5 log2FC (gene PDCD5 (9141), apoptosis genes): 0.123
- PDCL3 log2FC (gene PDCL3 (79031), apoptosis genes): -0.100
- PDE1B log2FC (gene PDE1B (5153), apoptosis genes): 0.004
- PDE3A log2FC (gene PDE3A (5139), apoptosis genes): -0.006
- log2FC PDE3A (gene PDE3A (Gene 5139), cell cycle genes): -0.006
